The text below walks through data of patent US20250026752A1, “POSITIVE ALLOSTERIC MODULATORS OF THE MUSCARINIC ACETYLCHOLINE RECEPTOR M4” (Vanderbilt University, priority 2021, published 2025).

A value given as a limit tells only on which side of the number the result lay.

The assay has as its target T1, human mAChR M4 (Homo sapiens, UniProt P08173).
T1 construct: expressed in transfected cells; host or cells: CHO-K1 (ATCC), stably expressing hM4 and Gqi5
T1 sequence (P08173 1-479): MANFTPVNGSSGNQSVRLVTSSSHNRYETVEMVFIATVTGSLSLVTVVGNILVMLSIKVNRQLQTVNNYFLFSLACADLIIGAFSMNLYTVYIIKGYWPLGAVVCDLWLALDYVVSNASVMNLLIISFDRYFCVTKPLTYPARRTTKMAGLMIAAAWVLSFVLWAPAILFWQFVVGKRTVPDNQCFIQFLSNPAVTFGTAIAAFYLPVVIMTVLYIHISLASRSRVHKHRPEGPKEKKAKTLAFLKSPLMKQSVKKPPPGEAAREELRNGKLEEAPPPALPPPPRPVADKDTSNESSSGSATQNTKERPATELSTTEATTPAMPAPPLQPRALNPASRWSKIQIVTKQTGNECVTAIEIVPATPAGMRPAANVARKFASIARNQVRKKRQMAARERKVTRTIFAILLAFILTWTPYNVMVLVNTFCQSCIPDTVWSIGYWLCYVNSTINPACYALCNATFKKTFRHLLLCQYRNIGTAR
The assay is described as follows: mAChR M4 cell-based functional assay: calcium flux (Fluo-4, FDSS), positive allosteric modulator activity on the EC20 acetylcholine response, hM4-Gqi5 CHO-K1 cells. The conditions noted are these: for Emax at 30 µM: CHO-K1, human M4, % ACh maximum at 30 μM; for EC50: human M4, PAM activity on EC20 acetylcholine response, calcium flux, read-out: Human M4 EC50. In a few lines: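 Potentiation was taken as the concentration-dependent rise in the EC20 acetylcholine calcium response, fitted by a four-parameter logistic with EC20 as baseline. Fluo-4-loaded hM4-Gqi5 CHO-K1 cells received 11-point, threefold-diluted compound before acetylcholine at 144 s; FDSS read at 1 Hz.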

In the case of `CC1CN(c2ncnc3ccc(F)cc23)Cc2cc(C(F)(F)F)cnc21` (racemic) [Compound 115, 6-fluoro-4-[8-methyl-3-(trifluoromethyl)-7,8-dihydro-5H-1,6-naphthyridin-6-yl]quinazoline], the Emax at 30 µM came to 93% and the concentration for a half-maximal effect (EC50) came to 60 nM.

In the case of `Cc1nc(N2CCc3ncc(-c4ccc(C5CC5)nc4)cc3C2)c2cc(Cl)ccc2n1` [Compound 50, 6-chloro-4-[3-(6-cyclopropyl-3-pyridyl)-7,8-dihydro-5H-1,6-naphthyridin-6-yl]-2-methyl-quinazoline], the maximal response (Emax) at 30 µM was 83% and the EC50 was found to be 1070 nM.

Regarding `Fc1cc2ncnc(N3CCc4ncc(CC(F)(F)F)cc4C3)c2cc1F` [Compound 286, 6,7-difluoro-4-(3-(2,2,2-trifluoroethyl)-7,8-dihydro-1,6-naphthyridin-6(5H)-yl)quinazoline], the Emax at 30 µM was 97% and the 50% effective concentration (EC50) was determined as 170 nM.

For the compound `Cc1nc2c(cc1N1CCOC(C)(C)C1)CN(c1ncnc3ccc(F)cc13)CC2` [Compound 219, 4-(6-(6-fluoroquinazolin-4-yl)-2-methyl-5,6,7,8-tetrahydro-1,6-naphthyridin-3-yl)-2,2-dimethylmorpholine], the Emax at 30 µM amounted to 60% and the concentration for a half-maximal effect (EC50) amounted to 1370 nM.

Consider `Fc1cc2ncnc(N3CCc4ncc(N5CCCn6nc(C(F)(F)F)cc65)cc4C3)c2cc1F` [Compound 278, 6,7-difluoro-4-(3-(2-(trifluoromethyl)-6,7-dihydropyrazolo[1,5-a]pyrimidin-4(5H)-yl)-7,8-dihydro-1,6-naphthyridin-6(5H)-yl)quinazoline], for which the Emax at 30 µM is 76% and the half-maximal effective concentration (EC50) turned out to be 410 nM.

Turning to `Cc1ccc(-c2cnc3c(c2)CN(c2nc(C)nc4ccc(F)cc24)CC3)cn1` [Compound 26, 6-fluoro-2-methyl-4-[3-(6-methyl-3-pyridyl)-7,8-dihydro-5H-1,6-naphthyridin-6-yl]quinazoline], the Emax at 30 µM is 102% and the concentration for a half-maximal effect (EC50) turned out to be 130 nM.

Turning to `Cc1ccc(Oc2cnc3c(c2)CN(c2nc(C)nc4ccc(Cl)cc24)CC3)c(F)c1` [Compound 147, 6-chloro-4-[3-(2-fluoro-4-methyl-phenoxy)-7,8-dihydro-5H-1,6-naphthyridin-6-yl]-2-methyl-quinazoline], the Emax at 30 µM was 54% and the EC50 amounted to 8340 nM.

Take `Fc1ccc2ncnc(N3CCc4ncc(Oc5ccccc5F)cc4C3)c2c1` [Compound 113, 6-fluoro-4-[3-(2-fluorophenoxy)-7,8-dihydro-5H-1,6-naphthyridin-6-yl]quinazoline]: the maximal effect (Emax) at 30 µM was determined as 69% and the EC50 was 160 nM.

`Cc1cc2n(n1)CCCN2c1cnc2c(c1)CN(c1ncnc3ccc(F)cc13)CC2` [Compound 226, 6-fluoro-4-(3-(2-methyl-6,7-dihydropyrazolo[1,5-a]pyrimidin-4(5H)-yl)-7,8-dihydro-1,6-naphthyridin-6(5H)-yl)quinazoline]: the maximum response (Emax) at 30 µM worked out at 103% and the EC50 is 60 nM.

For `COc1ccc2ncnc(N3CCc4ncc(Oc5cc(C)ccc5F)cc4C3)c2c1` [Compound 153, 4-[3-(2-fluoro-5-methyl-phenoxy)-7,8-dihydro-5H-1,6-naphthyridin-6-yl]-6-methoxy-quinazoline], the Emax at 30 µM was found to be 38% and the EC50 was greater than 10000 nM.

In the case of `Cc1ccc2nc(C3CC3)nc(N3CCc4ncc(-c5cn(C)nc5C)cc4C3)c2c1` [Compound 176, 2-cyclopropyl-4-[3-(1,3-dimethylpyrazol-4-yl)-7,8-dihydro-5H-1,6-naphthyridin-6-yl]-6-methyl-quinazoline], the maximal response (Emax) at 30 µM came out at 73% and the 50% effective concentration (EC50) is 740 nM.

Turning to `[2H]C1([2H])N(c2cnc3c(c2)CN(c2ncnc4cc(F)c(F)cc24)CC3)c2ccnn2C([2H])([2H])C1([2H])[2H]` [Compound 282, 4-(3-(6,7-dihydropyrazolo[1,5-a]pyrimidin-4(5H)-yl-5,5,6,6,7,7-d6)-7,8-dihydro-1,6-naphthyridin-6(5H)-yl)-6,7-difluoroquinazoline], the Emax at 30 µM came to 111% and the EC50 was 30 nM.

With `Cc1nc(N2CCc3ncc(N4CCO[C@@H](c5ccccc5)C4)cc3C2)c2cc(F)ccc2n1` [Compound 222, (S)-4-(6-(6-fluoro-2-methylquinazolin-4-yl)-5,6,7,8-tetrahydro-1,6-naphthyridin-3-yl)-2-phenylmorpholine], the maximal effect (Emax) at 30 µM stood at 50% and the 50% effective concentration (EC50) turned out to be 3470 nM.

Regarding `Cc1nc(N2CCc3ncc(Nc4cccnc4F)cc3C2)c2cc(Cl)ccc2n1` [Compound 72, 6-(6-chloro-2-methyl-quinazolin-4-yl)-N-(2-fluoro-3-pyridyl)-7,8-dihydro-5H-1,6-naphthyridin-3-amine], the maximum response (Emax) at 30 µM came to 84% and the EC50 turned out to be 490 nM.

Turning to `COc1ccc2ncnc(N3CCc4ncc(C5CC5)cc4C3)c2c1` [Compound 161, 4-(3-cyclopropyl-7,8-dihydro-5H-1,6-naphthyridin-6-yl)-6-methoxy-quinazoline], the maximum response (Emax) at 30 µM worked out at 83% and the concentration for a half-maximal effect (EC50) was found to be 110 nM.

With `Cc1noc(C)c1-c1cnc2c(c1)CN(c1ncnc3ccc(Cl)cc13)CC2` [Compound 2, 4-[6-(6-chloroquinazolin-4-yl)-7,8-dihydro-5H-1,6-naphthyridin-3-yl]-3,5-dimethyl-isoxazole], the Emax at 30 µM is 86% and the concentration giving a half-maximal response (EC50) came to 60 nM.

For `Fc1cccc(Cc2cnc3c(c2)CN(c2ncnc4ccc(F)cc24)CC3)c1` [Compound 114, 6-fluoro-4-[3-[(3-fluorophenyl)methyl]-7,8-dihydro-5H-1,6-naphthyridin-6-yl]quinazoline], the Emax at 30 µM is 75% and the concentration for a half-maximal effect (EC50) turned out to be 590 nM.

For `CC1CCN(c2cnc3c(c2)CN(c2ncnc4ccc(F)cc24)CC3)c2ccnn21` (stereo not drawn) [Compound 227, 6-fluoro-4-(3-(7-methyl-6,7-dihydropyrazolo[1,5-a]pyrimidin-4(5H)-yl)-7,8-dihydro-1,6-naphthyridin-6(5H)-yl)quinazoline], the maximal effect (Emax) at 30 µM stood at 75% and the EC50 was 80 nM.

For `CC(C)n1nccc1-c1cnc2c(c1)CN(c1ncnc3ccc(F)cc13)CC2` [Compound 264, 6-fluoro-4-(3-(1-isopropyl-1H-pyrazol-5-yl)-7,8-dihydro-1,6-naphthyridin-6(5H)-yl)quinazoline], the maximal response (Emax) at 30 µM is 82% and the concentration giving a half-maximal response (EC50) was 140 nM.

`Clc1ccc2ncnc(N3CCc4ncc(C5CC5)cc4C3)c2c1` [Compound 231, 6-chloro-4-(3-cyclopropyl-7,8-dihydro-1,6-naphthyridin-6(5H)-yl)quinazoline]: the maximal response (Emax) at 30 µM was 92% and the EC50 is 50 nM.

`Cc1ccc2nc(N3CCOCC3)nc(N3CCc4ncc(C(F)(F)F)cc4C3)c2c1` [Compound 205, 4-[6-methyl-4-[3-(trifluoromethyl)-7,8-dihydro-5H-1,6-naphthyridin-6-yl]quinazolin-2-yl]morpholine]: the maximal effect (Emax) at 30 µM came to 63% and the EC50 was found to be 670 nM.

Consider `Cc1ncc(-c2cnc3c(c2)CN(c2nc(C(F)(F)F)nc4ccc(F)cc24)CC3)s1` [Compound 66, 5-[6-[6-fluoro-2-(trifluoromethyl)quinazolin-4-yl]-7,8-dihydro-5H-1,6-naphthyridin-3-yl]-2-methyl-thiazole], for which the Emax at 30 µM was determined as 35% and the EC50 was found to be 810 nM.

With `Fc1cccc(Oc2cnc3c(c2)CN(c2ncnc4cc(F)c(F)cc24)CC3)c1` [Compound 159, 6,7-difluoro-4-[3-(3-flurophenoxy)-7,8-dihydro-5H-1,6-naphthyridin-6-yl]quinazoline], the maximal response (Emax) at 30 µM was found to be 81% and the EC50 came out at 680 nM.

Turning to `Cc1nc(N2CCc3ncc(N4CCOC(c5ccccn5)C4)cc3C2)c2cc(F)ccc2n1` (stereo not drawn) [Compound 224, 4-(6-(6-fluoro-2-methylquinazolin-4-yl)-5,6,7,8-tetrahydro-1,6-naphthyridin-3-yl)-2-(pyridin-2-yl)morpholine], the maximal effect (Emax) at 30 µM is 72% and the EC50 is 930 nM.

Regarding `CC1CN(c2cnc3c(c2)CN(c2ncnc4ccc(F)cc24)CC3)c2ccnn2C1` (stereo not drawn) [Compound 225, 6-fluoro-4-(3-(6-methyl-6,7-dihydropyrazolo[1,5-a]pyrimidin-4(5H)-yl)-7,8-dihydro-1,6-naphthyridin-6(5H)-yl)quinazoline], the Emax at 30 µM came to 94% and the EC50 came out at 70 nM.

For the compound `FC(F)(F)c1ccc2nc(N3CCc4ncc(C5CC5)cc4C3)nc(N3CCc4ncc(C5CC5)cc4C3)c2c1` [Compound 163, 2,4-bis(3-cyclopropyl-7,8-dihydro-5H-1,6-naphthyridin-6-yl)-6-(trifluoromethyl)quinazoline], the Emax at 30 µM came out at 57% and the EC50 was greater than 10000 nM.

As for `Cc1nc(N2CCc3ncc(Oc4ccccc4F)cc3C2)c2cc(F)ccc2n1` [Compound 133, 6-fluoro-4-[3-(2-fluorophenoxy)-7,8-dihydro-5H-1,6-naphthyridin-6-yl]-2-methyl-quinazoline], the maximal response (Emax) at 30 µM came out at 87% and the EC50 stood at 230 nM.

For orientation: Emax means the maximal effect, on the per cent scale that the assay sets. As a reminder, the EC50 is the midpoint of the concentration-response curve.
